Experimental data reported in ChEMBL document CHEMBL1201862, “PubChem BioAssay data set” (2004).
Activity calls are given as the source filed them.

Experiments:
[1] = target: T1, High affinity choline transporter 1 (Homo sapiens, UniProt Q9GZV3); assay: CHT inhibitors, dose response, cell-based, 5-point CRC, membrane potential dye (AID 504840); type: functional
T1 sequence (Q9GZV3 whole entry): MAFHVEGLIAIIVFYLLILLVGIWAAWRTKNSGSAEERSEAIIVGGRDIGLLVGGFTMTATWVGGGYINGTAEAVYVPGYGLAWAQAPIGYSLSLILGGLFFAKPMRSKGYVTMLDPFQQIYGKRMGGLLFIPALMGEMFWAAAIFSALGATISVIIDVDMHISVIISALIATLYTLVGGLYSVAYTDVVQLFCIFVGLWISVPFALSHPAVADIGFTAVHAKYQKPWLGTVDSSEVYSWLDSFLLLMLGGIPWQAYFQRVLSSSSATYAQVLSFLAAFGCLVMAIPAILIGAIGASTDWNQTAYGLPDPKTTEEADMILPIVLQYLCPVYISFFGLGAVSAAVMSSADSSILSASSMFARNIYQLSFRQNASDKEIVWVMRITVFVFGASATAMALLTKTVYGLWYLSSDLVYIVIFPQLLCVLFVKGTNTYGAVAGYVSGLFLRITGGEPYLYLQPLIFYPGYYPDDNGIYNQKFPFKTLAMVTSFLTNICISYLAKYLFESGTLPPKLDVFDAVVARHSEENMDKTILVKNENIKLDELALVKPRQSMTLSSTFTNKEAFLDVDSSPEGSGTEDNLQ

[2] = target: T1, High affinity choline transporter 1; assay: CHT inhibitors, dose response, cell-based, 10-point CRC, membrane potential dye (AID 588401); type: functional;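 also: membrane potential dye fluorescence of choline-evoked depolarization via CHT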
Melanocortin receptor 4 = Melanocortin receptor 4 (Homo sapiens, UniProt P32245); type: functional, cell-based;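 also: Cell-based assay with luminescence read-out, confirmatory dose-response testing for agonist activity of biased ligands at MC4R; human U2OS cells with tagged receptor and beta-arrestin; potency of agonists that increase receptor coupling to beta-arrestin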
Sequence of Melanocortin receptor 4 (P32245 whole entry): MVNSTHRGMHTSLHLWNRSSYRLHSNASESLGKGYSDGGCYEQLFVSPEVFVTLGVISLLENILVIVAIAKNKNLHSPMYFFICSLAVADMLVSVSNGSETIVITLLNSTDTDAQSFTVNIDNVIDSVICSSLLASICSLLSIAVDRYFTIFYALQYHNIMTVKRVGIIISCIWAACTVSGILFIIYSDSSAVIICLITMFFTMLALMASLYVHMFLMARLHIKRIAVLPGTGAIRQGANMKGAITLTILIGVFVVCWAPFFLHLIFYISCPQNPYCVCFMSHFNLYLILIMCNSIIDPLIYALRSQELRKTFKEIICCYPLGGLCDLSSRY

[3] = target: T2, Polyadenylate-binding protein 1 (Homo sapiens, UniProt P11940); assay: PABP1 MLLE–PAM2 binding inhibitor potency, dose response, biochemical, fluorescence polarization, FITC-PAM2 peptide (AID 602259); type: functional; conditions: read-out: IC50_Mean
T2 sequence (P11940 whole entry): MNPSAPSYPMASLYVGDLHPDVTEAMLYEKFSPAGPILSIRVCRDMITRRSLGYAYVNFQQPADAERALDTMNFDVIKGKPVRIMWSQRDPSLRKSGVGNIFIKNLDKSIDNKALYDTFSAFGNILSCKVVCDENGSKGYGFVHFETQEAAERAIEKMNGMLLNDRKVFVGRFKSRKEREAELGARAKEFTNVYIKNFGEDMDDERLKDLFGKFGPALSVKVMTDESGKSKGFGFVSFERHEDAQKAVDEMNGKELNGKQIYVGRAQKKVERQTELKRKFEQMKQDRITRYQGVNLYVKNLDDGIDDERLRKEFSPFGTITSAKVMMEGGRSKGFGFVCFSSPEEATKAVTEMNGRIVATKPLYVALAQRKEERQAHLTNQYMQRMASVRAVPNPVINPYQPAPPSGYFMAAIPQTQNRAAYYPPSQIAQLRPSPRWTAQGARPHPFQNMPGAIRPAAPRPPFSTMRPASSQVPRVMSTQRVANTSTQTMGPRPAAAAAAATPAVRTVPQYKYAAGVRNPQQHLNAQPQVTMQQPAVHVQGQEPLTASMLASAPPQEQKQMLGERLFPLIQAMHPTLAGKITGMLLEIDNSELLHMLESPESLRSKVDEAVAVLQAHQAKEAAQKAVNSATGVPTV

[4] = C. albicans growth with fluconazole, confirmation, fluorescence, retest (AID 2467); type: functional, cell-based
Streptococcus = assay: Group A Streptococcus viability loss, dose response, counter-screen for streptokinase expression inhibitor project, luminescence, BacTiterGlo (AID 1915); type: functional, organism-based;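 also: potency for reduction of bacterial viability or growth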
[5] = target: T2, Polyadenylate-binding protein 1; assay: PABP1 MLLE–PAM2 interaction inhibitors, dose response, miRNA deadenylation inhibitor project, biochemical, fluorescence polarization, Cy5-PAM2 peptide, secondary (AID 602260); type: functional; conditions: read-out: IC50_Mean
[6] = target: T3, Neuropeptide Y receptor type 1 (Homo sapiens, UniProt P25929); assay: Fluorescence-based counterscreen for agonists of NPY-Y2: cell-based high-throughput dose response assay for agonists of NPY-Y1.; type: functional
T3 sequence (P25929 whole entry): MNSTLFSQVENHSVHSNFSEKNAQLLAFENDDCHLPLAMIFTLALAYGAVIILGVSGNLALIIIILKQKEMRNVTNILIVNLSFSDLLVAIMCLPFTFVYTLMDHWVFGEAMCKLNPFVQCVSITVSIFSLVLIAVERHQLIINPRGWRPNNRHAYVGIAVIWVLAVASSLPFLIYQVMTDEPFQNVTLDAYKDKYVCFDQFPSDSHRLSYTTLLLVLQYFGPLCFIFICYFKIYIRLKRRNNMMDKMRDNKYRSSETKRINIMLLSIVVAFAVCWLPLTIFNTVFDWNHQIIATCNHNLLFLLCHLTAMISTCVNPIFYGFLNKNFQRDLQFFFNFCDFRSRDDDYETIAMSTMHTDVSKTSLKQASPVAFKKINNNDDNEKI

[7] = system: Streptococcus sp. 'group A'; assay: growth inhibition of control SK(-) GAS strain, dose response, counter-screen for streptokinase expression inhibitor project, luminescence, kanamycin, BacTiterGlo, confirmation (AID 1900); type: functional, organism-based
Streptokinase A = target: T4, Streptokinase A (Streptococcus pyogenes serotype M1, UniProt P10520); assay: S. pyogenes streptokinase expression inhibitors, potency, dose response, plasminogen activation absorbance, OD405 (AID 1914); type: functional, Streptococcus pyogenes M1 GAS;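 also: secreted streptokinase activity via plasminogen activation per viability signal from cell pellet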
T4 sequence (P10520 whole entry): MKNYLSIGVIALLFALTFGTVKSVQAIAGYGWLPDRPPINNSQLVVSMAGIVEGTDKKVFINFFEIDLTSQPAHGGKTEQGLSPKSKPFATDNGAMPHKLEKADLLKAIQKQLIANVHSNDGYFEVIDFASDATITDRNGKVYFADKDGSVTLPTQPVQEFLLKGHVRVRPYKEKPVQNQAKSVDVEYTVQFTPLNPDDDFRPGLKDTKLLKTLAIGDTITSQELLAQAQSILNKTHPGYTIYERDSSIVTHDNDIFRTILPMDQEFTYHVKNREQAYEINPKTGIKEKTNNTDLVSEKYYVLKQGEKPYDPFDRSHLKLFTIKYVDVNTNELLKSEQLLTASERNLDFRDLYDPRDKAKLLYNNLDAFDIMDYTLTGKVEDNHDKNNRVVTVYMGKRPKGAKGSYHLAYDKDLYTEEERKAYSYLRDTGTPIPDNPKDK

HEK293 = assay: Fluorescence-based counterscreen for potentiators or agonists of NPY-Y2: cell-based high-throughput dose response assay to identify inhibitors of cyclic nucleotide gated ion channel (CNGC) activity. In this assay, the parental HEK293 cell line transfected with a cyclic-nucleotide gated ion channel (CNGC)-based cAMP sensor is used to measure inhibition of isoproterenol-induced CNGC activity by test compound.; type: functional; conditions: Homo sapiens;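 also: stimulus is 1 µM isoproterenol at EC100 plus PDE inhibitor Ro 20-1724 at 25 µM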
[8] = target: T5, Neuropeptide Y receptor type 2 (Homo sapiens, UniProt P49146); assay: Fluorescence-based cell-based high-throughput dose response assay for agonists of NPY-Y2. [Related pubchem assays: 1703 (Screening assay (CNGC inhibitors).), 1359 (Screening assay (NPY-Y2 potentiators or agonists).), 1304 (Screening assay (NPY-Y1 potentiators or agonists).), 1710 (Screening assay (NPY-Y2 agonists).), 1791 (Summary AID.)]; type: functional
T5 sequence (P49146 whole entry): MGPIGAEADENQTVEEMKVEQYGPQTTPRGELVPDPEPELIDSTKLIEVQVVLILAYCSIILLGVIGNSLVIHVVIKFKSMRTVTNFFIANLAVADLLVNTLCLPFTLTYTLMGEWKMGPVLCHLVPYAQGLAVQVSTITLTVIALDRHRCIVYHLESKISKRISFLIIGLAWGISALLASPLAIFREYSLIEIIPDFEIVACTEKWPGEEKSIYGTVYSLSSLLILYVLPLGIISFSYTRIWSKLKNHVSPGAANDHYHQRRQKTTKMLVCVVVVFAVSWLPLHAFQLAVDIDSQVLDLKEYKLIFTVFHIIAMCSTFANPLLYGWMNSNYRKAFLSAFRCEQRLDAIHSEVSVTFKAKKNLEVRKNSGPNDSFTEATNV

[9] = microbe, parasite or virus in culture; type: functional; conditions: Mycobacterium tuberculosis
[10] = NIH-3T3 fibroblast cytotoxicity, dose response, cytotoxicity control, cell-based, fluorescence, Alamar Blue, secondary assay (AID 2327); type: functional;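 also: NIH-3T3 mouse fibroblasts cultured with fluconazole at 8 µg/mL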
Interleukin-8 [11] = target: T6, Interleukin-8 (Homo sapiens, UniProt P10145); assay: Dose Response confirmation of uHTS small molecule hits for cystic fibrosis induced NFkb Inhibitors in a PAF-induced IL8 counterscreen.; type: functional; conditions: read-out: IC50_Mean
T6 sequence (P10145 whole entry): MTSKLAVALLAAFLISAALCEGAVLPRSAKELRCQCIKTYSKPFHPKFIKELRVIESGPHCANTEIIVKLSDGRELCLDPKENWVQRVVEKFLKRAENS

Paired box protein Pax-8 = Paired box protein Pax-8 (Homo sapiens, UniProt Q06710); assay: inhibitors of PAX8-driven TPO luciferase reporter, dose response, RMG-I cells, cherry-pick (AID 687027); type: functional, cell-based;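 also: luciferase reporter driven by Pax8 target thyroperoxidase promoter measured by SteadyGlo luminescence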
Sequence of Paired box protein Pax-8 (Q06710 whole entry): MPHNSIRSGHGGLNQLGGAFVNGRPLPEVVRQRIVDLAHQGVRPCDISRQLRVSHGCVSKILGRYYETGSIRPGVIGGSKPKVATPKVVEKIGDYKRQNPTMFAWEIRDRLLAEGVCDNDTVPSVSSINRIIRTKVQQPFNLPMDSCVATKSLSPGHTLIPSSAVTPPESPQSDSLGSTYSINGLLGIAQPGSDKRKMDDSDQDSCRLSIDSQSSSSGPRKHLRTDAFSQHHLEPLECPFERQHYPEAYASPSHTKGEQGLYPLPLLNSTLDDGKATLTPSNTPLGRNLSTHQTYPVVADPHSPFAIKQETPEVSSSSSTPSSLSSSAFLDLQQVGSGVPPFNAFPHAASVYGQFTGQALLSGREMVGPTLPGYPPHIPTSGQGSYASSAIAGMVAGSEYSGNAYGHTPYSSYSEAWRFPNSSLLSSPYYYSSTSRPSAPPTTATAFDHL

Interleukin-8 [12] = target: T6, Interleukin-8; assay: Dose Response confirmation of uHTS small molecule hits for cystic fibrosis induced NFkb Inhibitors in a TNFa-induced IL8 counterscreen.; type: functional; conditions: read-out: IC50_Mean
[13] = target: DNA repair and recombination protein RAD54-like (Homo sapiens, UniProt Q92698); assay: inhibitors of human RAD54 branch migration, confirmation, biochemical, fluorescence, cherry-picked samples, dose series (AID 651657); type: functional
Sequence of DNA repair and recombination protein RAD54-like (Q92698 whole entry): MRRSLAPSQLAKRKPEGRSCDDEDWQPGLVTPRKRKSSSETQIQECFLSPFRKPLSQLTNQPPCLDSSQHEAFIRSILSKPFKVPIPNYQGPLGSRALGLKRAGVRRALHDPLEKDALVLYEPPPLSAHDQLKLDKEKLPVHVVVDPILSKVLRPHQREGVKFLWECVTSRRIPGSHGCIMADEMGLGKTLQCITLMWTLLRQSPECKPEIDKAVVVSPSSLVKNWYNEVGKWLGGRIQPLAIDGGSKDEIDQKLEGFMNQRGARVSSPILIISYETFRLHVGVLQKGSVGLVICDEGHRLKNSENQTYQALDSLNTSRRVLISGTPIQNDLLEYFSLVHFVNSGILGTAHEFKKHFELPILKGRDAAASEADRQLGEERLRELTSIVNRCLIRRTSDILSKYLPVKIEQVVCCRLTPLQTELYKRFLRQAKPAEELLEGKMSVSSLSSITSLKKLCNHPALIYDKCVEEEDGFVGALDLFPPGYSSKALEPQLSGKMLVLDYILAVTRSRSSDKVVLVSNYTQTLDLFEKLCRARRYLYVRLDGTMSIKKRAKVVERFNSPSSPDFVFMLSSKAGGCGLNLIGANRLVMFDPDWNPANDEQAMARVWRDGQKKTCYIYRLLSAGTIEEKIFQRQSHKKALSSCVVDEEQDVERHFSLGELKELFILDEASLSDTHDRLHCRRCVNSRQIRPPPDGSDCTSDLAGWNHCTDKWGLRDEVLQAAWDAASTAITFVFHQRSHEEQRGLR

O=[N+]([O-])/C(C(=C(Cl)Cl)N1CCN(Cc2ccccc2)CC1)=C1\NCCN1Cc1ccc(Cl)nc1
IC50 [1]: 6.15 µM (active)
IC50 [2]: 5.39 µM (active)

COc1ccc(-c2cnc3c(NC(C)=O)cc(-c4cc(F)ccc4OC)cn23)cc1OC
EC50 (Melanocortin receptor 4): > 89.2 µM (inactive)

N#C/C(=N/Nc1ccc(OC(F)(F)F)cc1)C(N)=S
IC50 [3]: > 66 µM (inactive)
EC50 [4]: 1.67 µM (active)
EC50 (Streptococcus): > 150 µM (not active)
IC50 [1]: 7.16 µM (active)
IC50 [5]: > 66 µM (inactive)
EC50 [6]: 33.3 µM (not active)
IC50 [2]: 0.631 µM (active)
EC50 [7]: 44.9 µM (active)
EC50 (Streptokinase A): > 150 µM (not active)
EC50 (HEK293): > 35.4 µM (not active)
EC50 [8]: > 35.4 µM (not active)
CC50 [9]: 8.05 µM (active)
EC50 [10]: 15 µM (active)

CCOC(=O)Nc1ccc2c(c1)N(C(=O)CCN(CC)CC)c1ccccc1[S+]2[O-] (stereo not given)
IC50 (Interleukin-8 [11]): 1.12 µM (active)
AC50 (Paired box protein Pax-8): 7.06 µM (active)
IC50 (Interleukin-8 [12]): 1.01 µM (active)

COc1cccc(-c2nc(N3CCN(Cc4ccccc4)CC3)c3ccccc3n2)c1O
AC50 [13]: 100 µM (inactive)
